From PubChem BioAssay (NCI)
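Grown in 96-well plates, cells were treated for 48 hours with each compound at five concentrations. Insufficient inhibition: endpoint recorded as highest concentration tested. The concentration for full growth arrest is given as TGI.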

Assays:
Assay in all cases: NCI-60 cell line screen, 48 h
[1] = system: HCT-15 colon
[2] = system: NCI/ADR-RES ovarian
[3] = system: U251 CNS
[4] = system: NCI-H522 lung
[5] = system: HCT-116 colon
[6] = system: OVCAR-5 ovarian
[7] = system: CAKI-1 renal
[8] = system: HCC-2998 colon
[9] = system: MCF7 breast
[10] = system: OVCAR-3 ovarian
[11] = system: SN12C renal
[12] = system: MDA-N
[13] = system: SNB-75 CNS
[14] = system: RPMI-8226 leukemia
[15] = system: 786-0 renal
[16] = system: SK-OV-3 ovarian
[17] = system: SW-620 colon
[18] = system: EKVX NSCLC
[19] = system: COLO 205 colon
[20] = system: NCI-H226 lung
[21] = system: SK-MEL-2 melanoma
[22] = system: OVCAR-8 ovarian
[23] = system: BT-549 breast
[24] = system: SK-MEL-5 melanoma
[25] = system: HS 578T breast
[26] = system: UACC-257 melanoma
[27] = system: DU-145 prostate
[28] = system: HL-60(TB) leukemia
[29] = system: SF-539 CNS
[30] = system: HOP-92 NSCLC
[31] = system: MALME-3M melanoma
[32] = system: A549 NSCLC
[33] = system: HT29 colon
[34] = system: HOP-62 NSCLC
[35] = system: OVCAR-4 ovarian
[36] = system: LOX IMVI melanoma
[37] = system: KM12 colon
[38] = system: MOLT-4 leukemia
[39] = system: PC-3 prostate
[40] = system: CCRF-CEM leukemia
[41] = system: IGROV1 ovarian
[42] = system: UACC-62 melanoma
[43] = system: T-47D breast
[44] = system: SR leukemia
[45] = system: SNB-19 CNS
[46] = system: NCI-H23 lung
[47] = system: M14 melanoma
[48] = system: UO-31 renal
[49] = system: SF-295 CNS
[50] = system: MDA-MB-435
[51] = system: SF-268 CNS
[52] = system: TK-10 renal
[53] = system: ACHN renal
[54] = system: K-562 leukemia
[55] = system: MDA-MB-231 breast
[56] = system: SK-MEL-28 melanoma
[57] = system: NCI-H460 lung
[58] = system: A498 renal
[59] = system: RXF 393 renal

Measured: TGI

C/C(=N/OC(=O)c1cccc2c(=O)c3ccccc3[nH]c12)[C@H]1CC[C@H]2[C@@H]3CCC4=C/C(=N/OC(=O)c5cccc6c(=O)c7ccccc7[nH]c56)CC[C@]4(C)[C@H]3CC[C@]12C
52.8 µM: [20]
14.6 µM: [14]
29.7 µM: [47]
29.9 µM: [46]
28.5 µM: [48]
38.2 µM: [37]
29.6 µM: [3]
26.9 µM: [8]
51.2 µM: [34]
33.7 µM: [6]
37.1 µM: [41]
29.5 µM: [29] | [53]
58.8 µM: [43]
32.8 µM: [21]
34 µM: [28]
93.2 µM: [16]
30.6 µM: [11] | [55]
39.4 µM: [45]
42.6 µM: [30]
28.8 µM: [33]
32.1 µM: [42]
34.8 µM: [23]
34.4 µM: [10]
39.6 µM: [38]
71.3 µM: [18]
33.4 µM: [26]
97.6 µM: [13]
> 100 µM: [25] | [32] | [35] | [54]
33.3 µM: [22] | [50]
31.5 µM: [39]
25 µM: [5]
34.6 µM: [49]
45.2 µM: [52]
43.1 µM: [2]
27 µM: [1]
79.3 µM: [27]
26.2 µM: [4]
30.3 µM: [12] | [19]
45.5 µM: [51]
37.3 µM: [31]
47.2 µM: [7]
26.4 µM: [9] | [24]
27.1 µM: [17]
16.3 µM: [40]
25.3 µM: [44]
44.7 µM: [15]
26.7 µM: [36]

CC1=NN(C(=O)CC(=O)N(C(=O)c2ccccc2)c2ccc(Cl)cc2)C(=O)C1N=Nc1ccc([N+](=O)[O-])cc1 (stereo not given)
> 10 µM: [1] | [2] | [3] | [4] | [5] | [6] | [7] | [8] | [9] | [10] | [11] | [12] | [13] | [14] | [15] | [16] | [17] | [18] | [19] | [20] | [21] | [22] | [23] | [24] | [56] | [25] | [26] | [57] | [27] | [28] | [29] | [30] | [31] | [32] | [33] | [34] | [35] | [36] | [37] | [38] | [58] | [39] | [40] | [41] | [42] | [59] | [43] | [45] | [46] | [48] | [49] | [50] | [51] | [52] | [53] | [54] | [55]

O=C(O)c1ccccc1Sc1ccccc1[N+](=O)[O-]
> 100 µM: [1] | [2] | [3] | [4] | [5] | [6] | [7] | [8] | [9] | [10] | [11] | [12] | [13] | [14] | [15] | [16] | [17] | [18] | [19] | [20] | [21] | [22] | [23] | [24] | [56] | [25] | [26] | [57] | [27] | [28] | [29] | [30] | [31] | [32] | [33] | [34] | [35] | [36] | [37] | [38] | [58] | [39] | [40] | [41] | [42] | [59] | [43] | [45] | [46] | [47] | [48] | [49] | [50] | [51] | [52] | [53] | [54] | [55]
